Measurements as given in ChEMBL document CHEMBL4420080, “Inhibitors of sox18 protein activity for treating angiogenesis- and/or lymphangiogenesis-related diseases” (2018).
The source made the active and inactive calls. The calls are words filed in the database; no cut-off is given here.

Columns and labels:
[1] = biological target: Androgen receptor (Homo sapiens) (UniProt P10275); assay: Inhibition of human androgen receptor at 10 uM relative to control
Danio rerio [2] = assay: Induction of arterial and venous genes dys-regulation in zebrafish larvae harboring fli1 a:eGFP,-6.5kdrl:mCherry assessed as effect on prox1a gene expression at 1.5 uM dosed starting from 16 hpf and measured at 24 and 48 hpf by qRT-PCR analysis; type: functional, organism-based
Danio rerio [3] = assay: Induction of arterial and venous genes dys-regulation in zebrafish larvae harboring fli1 a:eGFP,-6.5kdrl:mCherry assessed as effect on Ilt4 gene expression at 1.5 uM dosed starting from 16 hpf and measured at 24 and 48 hpf by qRT-PCR analysis; type: functional, organism-based
4T1.2 [4] = assay: Antitumor activity against mouse 4T1.2 cells implanted in BALB/c mouse assessed as median disease latency time at 25 mg/kg/day for 10 days (Rvb =33 days); type: functional
4T1.2 [5] = assay: Antitumor activity against mouse 4T1.2 cells implanted in BALB/c mouse assessed as median disease latency time at 50 mg/kg/day for 10 days (Rvb =40 days); type: functional
[6] = biological target: Alpha-1A adrenergic receptor (Rattus norvegicus) (UniProt P43140); assay: Inhibition of rat adrenergic alpha1A receptor at 10 uM relative to control
Danio rerio [7] = assay: Induction of arterial and venous genes dys-regulation in zebrafish larvae harboring fli1 a:eGFP,-6.5kdrl:mCherry assessed as effect on notch1b gene expression at 1.5 uM dosed starting from 16 hpf and measured at 24 and 48 hpf by qRT-PCR analysis; type: functional, organism-based
4T1.2 [8] = assay: Inhibition of tumor induced vascular response in mouse 4T1.2 cells implanted BALB/c mouse assessed as reduction in volume of the blood vessels in tumor region at 25 mg/kg/day for 10 days by ERG/EMCN-detection based immunofluorescent staining relative to control; type: functional; settings: 4T1.2, 240 h
[9] = biological target: Beta-1 adrenergic receptor (Homo sapiens) (UniProt P08588); assay: Inhibition of human adrenergic beta1 receptor at 10 uM relative to control
[10] = Cytotoxicity in African green monkey COS7 cells assessed as reduction in cell viability incubated for 24 hrs by Alamar blue dye based assay; parameters: species or system COS-7; settings: chlorocebus aethiops
Danio rerio [11] = assay: Induction of arterial and venous genes dys-regulation in zebrafish larvae harboring fli1 a:eGFP,-6.5kdrl:mCherry assessed as effect on hey1 gene expression at 1.5 uM dosed starting from 16 hpf and measured at 24 and 48 hpf by qRT-PCR analysis; type: functional, organism-based
[12] = biological target: Transcription factor SOX-9 (Homo sapiens) (UniProt P48436); assay: Inhibition of SOX9 in HUVEC assessed as reduction of SOX9-SOX9 interactions up to 200 uM incubated for 45 mins by Alpha-screen assay; type: cell-based
4T1.2 [13] = assay: Inhibition of tumor induced lymphangiogenesis response in mouse 4T1.2 cells implanted BALB/c mouse assessed as reduction in number of lymphatic endothelial cells at 25 mg/kg/day for 10 days by PROX1/podoplanin detection based immunofluorescent staining relative to control; type: functional; settings: 4T1.2, 240 h
4T1.2 [14] = assay: Antitumor activity against mouse 4T1.2 cells implanted in BALB/c mouse assessed as reduction in mean number of lung metastases at 25 mg/kg/day for 10 days measured at day 28 after tumor inoculation relative to control; type: functional; parameters: scale not given: the % may be the effect or the level left
[15] = biological target: Sigma non-opioid intracellular receptor 1 (Homo sapiens) (UniProt Q99720); assay: Inhibition of human sigma1 receptor at 10 uM relative to control
[16] = biological target: 5-hydroxytryptamine receptor 2B (Homo sapiens) (UniProt P41595); assay: Inhibition of human 5HT2B receptor at 10 uM relative to control
[17] = biological target: Prostaglandin E2 receptor EP4 subtype (Homo sapiens) (UniProt P35408); assay: Inhibition of human EP4 receptor at 10 uM relative to control
Danio rerio [18] = assay: Induction of vascular phenotype changes in zebrafish larvae harboring fli1 a:eGFP,-6.5kdrl:mCherry assessed as induction of posterior cardinal vein enlargement with arteriovenous shunts and incomplete trunk circulation at 1.5 uM dosed starting from 16 hpf; type: functional, organism-based
[19] = biological target: Endothelial transcription factor GATA-2 (Homo sapiens) (UniProt P23769); assay: Inhibition of GATA2 in HUVEC assessed as reduction of GATA2 transcriptional activity by genome-wide RNA-seq and ChlP-seq analysis; type: cell-based
[20] = Plasma concentration in BALB/c mouse xenografted with mouse 4T1.2 cells at 25 mg/kg/day for 10 days measured at day 12; type: ADME, organism-based
[21] = biological target: Adenosine receptor A1 (Homo sapiens) (UniProt P30542); assay: Inhibition of human adenosine A1 receptor at 10 uM relative to control
4T1.2 [22] = assay: Antitumor activity against mouse 4T1.2 cells implanted in BALB/c mouse undergoing sham surgery without excising tumor on day 12 assessed as effect on mouse survival at 25 mg/kg/day for 10 days; type: functional, organism-based
[23] = biological target: Beta-2 adrenergic receptor (Homo sapiens) (UniProt P07550); assay: Inhibition of human adrenergic beta2 receptor at 10 uM relative to control
[24] = biological target: Transcription factor SOX-17 (Homo sapiens) (UniProt Q9H6I2); assay: Inhibition of SOX17 (unknown origin) expressed in African green monkey COS7 cells assessed as reduction in SOX17 transcriptional activity at; type: cell-based
[25] = biological target: Neuronal acetylcholine receptor (Homo sapiens) (UniProt P17787+P30926+P32297+P43681+Q15822+Q9UGM1+Q15825+P30532+P36544+Q9GZZ6+Q05901); assay: Inhibition of human nAChR at 10 uM relative to control
Danio rerio [26] = assay: Induction of arterial and venous genes dys-regulation in zebrafish larvae harboring fli1 a:eGFP,-6.5kdrl:mCherry assessed as effect on mCherry gene expression at 1.5 uM dosed starting from 16 hpf and measured at 24 and 48 hpf by qRT-PCR analysis; type: functional, organism-based
[27] = biological target: Alpha-1B adrenergic receptor (Rattus norvegicus) (UniProt P15823); assay: Inhibition of rat adrenergic alpha1B receptor at 10 uM relative to control
[28] = biological target: Histone-lysine N-methyltransferase EZH2 (Homo sapiens) (UniProt Q15910); assay: Inhibition of EZH2 in HUVEC assessed as reduction of EZH2 transcriptional activity by genome-wide RNA-seq and ChlP-seq analysis; type: cell-based
[29] = biological target: Mu-type opioid receptor (Homo sapiens) (UniProt P35372); assay: Inhibition of human mu opioid receptor at 10 uM relative to control
4T1.2 [30] = assay: Inhibition of tumor induced vascular response in mouse 4T1.2 cells implanted BALB/c mouse assessed as reduction in blood vessel coverage at 25 mg/kg/day for 10 days by bright field microscopy; type: functional, organism-based
[31] = biological target: NAD-dependent protein deacetylase sirtuin-2 (Homo sapiens) (UniProt Q8IXJ6); assay: Inhibition of human Sirtuin2 at 10 uM relative to control
[32] = biological target: Cannabinoid receptor 1 (Homo sapiens) (UniProt P21554); assay: Inhibition of human CB1 receptor at 10 uM relative to control
hERG (KCNH2) = hERG (KCNH2) (Homo sapiens, UniProt Q12809); assay: Inhibition of human ERG at 10 uM relative to control
Chain of hERG (KCNH2) (Q12809 whole entry): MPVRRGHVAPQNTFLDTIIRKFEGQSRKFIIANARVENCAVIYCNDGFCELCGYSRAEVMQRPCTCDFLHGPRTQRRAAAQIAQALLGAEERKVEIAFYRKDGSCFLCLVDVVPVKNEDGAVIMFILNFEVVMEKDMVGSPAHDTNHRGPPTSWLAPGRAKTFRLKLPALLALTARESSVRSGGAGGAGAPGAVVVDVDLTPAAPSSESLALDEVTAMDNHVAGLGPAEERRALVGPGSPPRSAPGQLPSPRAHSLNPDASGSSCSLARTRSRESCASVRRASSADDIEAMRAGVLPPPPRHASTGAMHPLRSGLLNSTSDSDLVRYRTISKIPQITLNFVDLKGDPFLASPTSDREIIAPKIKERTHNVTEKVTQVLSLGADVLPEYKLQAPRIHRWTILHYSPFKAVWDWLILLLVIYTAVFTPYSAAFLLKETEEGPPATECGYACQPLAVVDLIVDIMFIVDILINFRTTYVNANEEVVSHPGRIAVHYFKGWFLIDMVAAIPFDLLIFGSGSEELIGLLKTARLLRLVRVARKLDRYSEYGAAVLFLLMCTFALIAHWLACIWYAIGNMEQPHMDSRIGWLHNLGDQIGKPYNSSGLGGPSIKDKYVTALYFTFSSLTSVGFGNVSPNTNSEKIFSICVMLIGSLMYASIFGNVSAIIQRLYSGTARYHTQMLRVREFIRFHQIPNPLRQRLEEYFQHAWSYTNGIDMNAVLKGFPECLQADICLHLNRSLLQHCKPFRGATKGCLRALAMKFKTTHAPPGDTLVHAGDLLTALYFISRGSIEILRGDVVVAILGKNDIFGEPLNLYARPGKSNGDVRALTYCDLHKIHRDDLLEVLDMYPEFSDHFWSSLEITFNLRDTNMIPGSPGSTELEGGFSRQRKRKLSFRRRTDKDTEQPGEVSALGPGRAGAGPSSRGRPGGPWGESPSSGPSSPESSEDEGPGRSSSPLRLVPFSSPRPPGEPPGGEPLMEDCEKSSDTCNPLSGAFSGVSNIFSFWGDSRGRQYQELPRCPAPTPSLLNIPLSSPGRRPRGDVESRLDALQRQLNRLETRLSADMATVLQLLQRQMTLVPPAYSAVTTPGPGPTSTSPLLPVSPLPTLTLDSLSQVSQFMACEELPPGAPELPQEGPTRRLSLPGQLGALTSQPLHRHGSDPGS

Chain of Alpha-1B adrenergic receptor (Rattus norvegicus) (P15823 whole entry): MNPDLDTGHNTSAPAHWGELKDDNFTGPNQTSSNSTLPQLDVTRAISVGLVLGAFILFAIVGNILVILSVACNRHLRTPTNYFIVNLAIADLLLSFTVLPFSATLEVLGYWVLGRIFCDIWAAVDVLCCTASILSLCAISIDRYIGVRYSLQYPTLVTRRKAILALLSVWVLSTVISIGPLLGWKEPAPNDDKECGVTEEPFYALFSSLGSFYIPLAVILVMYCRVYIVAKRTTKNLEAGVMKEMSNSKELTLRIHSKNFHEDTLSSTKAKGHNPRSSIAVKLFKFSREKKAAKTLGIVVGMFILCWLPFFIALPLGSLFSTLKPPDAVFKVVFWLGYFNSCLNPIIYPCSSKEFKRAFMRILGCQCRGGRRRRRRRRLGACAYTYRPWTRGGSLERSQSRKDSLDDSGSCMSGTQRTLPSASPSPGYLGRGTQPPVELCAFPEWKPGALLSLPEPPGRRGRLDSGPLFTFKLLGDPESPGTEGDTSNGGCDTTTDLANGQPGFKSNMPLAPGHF
Chain of Prostaglandin E2 receptor EP4 subtype (Homo sapiens) (P35408 whole entry): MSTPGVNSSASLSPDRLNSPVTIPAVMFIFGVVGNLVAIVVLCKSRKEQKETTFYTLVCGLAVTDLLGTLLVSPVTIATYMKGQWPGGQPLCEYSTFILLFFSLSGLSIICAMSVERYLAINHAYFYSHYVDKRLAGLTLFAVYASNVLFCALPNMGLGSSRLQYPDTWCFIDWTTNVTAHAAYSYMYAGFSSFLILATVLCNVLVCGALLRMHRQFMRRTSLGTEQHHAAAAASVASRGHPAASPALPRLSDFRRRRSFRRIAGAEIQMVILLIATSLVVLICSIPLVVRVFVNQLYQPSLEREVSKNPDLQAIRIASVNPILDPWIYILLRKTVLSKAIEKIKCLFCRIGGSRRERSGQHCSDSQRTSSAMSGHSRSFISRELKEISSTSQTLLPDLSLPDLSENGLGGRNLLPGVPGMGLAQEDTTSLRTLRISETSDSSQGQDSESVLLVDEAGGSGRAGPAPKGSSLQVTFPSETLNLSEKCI
Chain of NAD-dependent protein deacetylase sirtuin-2 (Homo sapiens) (Q8IXJ6 whole entry): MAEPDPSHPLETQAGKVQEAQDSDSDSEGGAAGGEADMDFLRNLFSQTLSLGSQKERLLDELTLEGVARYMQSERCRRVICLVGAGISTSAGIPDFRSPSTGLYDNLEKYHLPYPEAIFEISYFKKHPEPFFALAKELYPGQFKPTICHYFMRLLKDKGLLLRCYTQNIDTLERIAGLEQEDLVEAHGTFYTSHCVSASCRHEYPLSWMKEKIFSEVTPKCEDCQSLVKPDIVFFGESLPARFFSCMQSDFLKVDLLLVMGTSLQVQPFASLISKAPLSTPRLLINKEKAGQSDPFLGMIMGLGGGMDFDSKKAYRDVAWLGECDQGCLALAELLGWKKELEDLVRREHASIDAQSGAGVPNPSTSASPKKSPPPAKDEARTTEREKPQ
Chain of Beta-2 adrenergic receptor (Homo sapiens) (P07550 whole entry, looked up): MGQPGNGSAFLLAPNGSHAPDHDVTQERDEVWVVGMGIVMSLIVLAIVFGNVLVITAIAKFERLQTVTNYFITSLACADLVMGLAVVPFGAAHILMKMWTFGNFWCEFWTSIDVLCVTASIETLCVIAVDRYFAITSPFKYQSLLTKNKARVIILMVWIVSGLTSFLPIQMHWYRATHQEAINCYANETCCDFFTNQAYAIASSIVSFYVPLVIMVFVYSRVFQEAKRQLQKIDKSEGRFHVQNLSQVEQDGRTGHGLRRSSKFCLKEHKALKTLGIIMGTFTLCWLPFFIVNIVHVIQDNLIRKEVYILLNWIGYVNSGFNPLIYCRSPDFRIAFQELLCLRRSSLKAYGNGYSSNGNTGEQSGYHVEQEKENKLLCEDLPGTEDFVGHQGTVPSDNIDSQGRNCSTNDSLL
Chain of Transcription factor SOX-17 (Homo sapiens) (Q9H6I2 whole entry): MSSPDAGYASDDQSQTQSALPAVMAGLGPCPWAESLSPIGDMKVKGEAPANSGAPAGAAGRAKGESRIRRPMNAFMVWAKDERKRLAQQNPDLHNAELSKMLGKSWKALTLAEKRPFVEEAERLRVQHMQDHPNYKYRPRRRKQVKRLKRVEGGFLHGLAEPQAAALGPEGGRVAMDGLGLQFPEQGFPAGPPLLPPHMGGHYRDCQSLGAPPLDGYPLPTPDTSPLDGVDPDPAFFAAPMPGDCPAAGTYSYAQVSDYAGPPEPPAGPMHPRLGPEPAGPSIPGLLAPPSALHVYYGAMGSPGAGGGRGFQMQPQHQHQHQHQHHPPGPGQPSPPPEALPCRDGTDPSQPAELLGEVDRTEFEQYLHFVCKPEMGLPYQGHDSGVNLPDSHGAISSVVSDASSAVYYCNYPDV
Chain of Cannabinoid receptor 1 (Homo sapiens) (P21554 whole entry): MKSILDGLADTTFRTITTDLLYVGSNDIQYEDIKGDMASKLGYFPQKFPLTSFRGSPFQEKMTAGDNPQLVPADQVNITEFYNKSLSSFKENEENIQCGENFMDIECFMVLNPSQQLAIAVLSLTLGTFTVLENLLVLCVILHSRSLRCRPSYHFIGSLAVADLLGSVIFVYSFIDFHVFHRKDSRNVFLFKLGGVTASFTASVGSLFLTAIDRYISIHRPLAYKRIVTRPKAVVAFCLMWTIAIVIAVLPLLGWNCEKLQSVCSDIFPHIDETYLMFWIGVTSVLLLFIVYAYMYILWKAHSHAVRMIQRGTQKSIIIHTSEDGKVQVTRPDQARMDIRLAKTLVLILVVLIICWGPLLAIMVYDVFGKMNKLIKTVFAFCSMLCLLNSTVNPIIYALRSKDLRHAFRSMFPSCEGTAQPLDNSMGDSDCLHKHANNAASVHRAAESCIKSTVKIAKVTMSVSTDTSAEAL
Chain of Mu-type opioid receptor (Homo sapiens) (P35372 whole entry): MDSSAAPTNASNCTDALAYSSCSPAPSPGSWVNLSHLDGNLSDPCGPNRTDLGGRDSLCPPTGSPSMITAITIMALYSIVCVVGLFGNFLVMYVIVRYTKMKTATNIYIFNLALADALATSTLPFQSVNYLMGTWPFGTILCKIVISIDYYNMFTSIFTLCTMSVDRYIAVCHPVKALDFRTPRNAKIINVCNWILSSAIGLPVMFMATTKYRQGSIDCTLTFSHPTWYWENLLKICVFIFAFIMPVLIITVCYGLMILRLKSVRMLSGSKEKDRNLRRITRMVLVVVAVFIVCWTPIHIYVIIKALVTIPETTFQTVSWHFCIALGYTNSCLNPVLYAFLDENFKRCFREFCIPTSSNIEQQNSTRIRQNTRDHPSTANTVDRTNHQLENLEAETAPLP
Chain of Histone-lysine N-methyltransferase EZH2 (Homo sapiens) (Q15910 whole entry, looked up): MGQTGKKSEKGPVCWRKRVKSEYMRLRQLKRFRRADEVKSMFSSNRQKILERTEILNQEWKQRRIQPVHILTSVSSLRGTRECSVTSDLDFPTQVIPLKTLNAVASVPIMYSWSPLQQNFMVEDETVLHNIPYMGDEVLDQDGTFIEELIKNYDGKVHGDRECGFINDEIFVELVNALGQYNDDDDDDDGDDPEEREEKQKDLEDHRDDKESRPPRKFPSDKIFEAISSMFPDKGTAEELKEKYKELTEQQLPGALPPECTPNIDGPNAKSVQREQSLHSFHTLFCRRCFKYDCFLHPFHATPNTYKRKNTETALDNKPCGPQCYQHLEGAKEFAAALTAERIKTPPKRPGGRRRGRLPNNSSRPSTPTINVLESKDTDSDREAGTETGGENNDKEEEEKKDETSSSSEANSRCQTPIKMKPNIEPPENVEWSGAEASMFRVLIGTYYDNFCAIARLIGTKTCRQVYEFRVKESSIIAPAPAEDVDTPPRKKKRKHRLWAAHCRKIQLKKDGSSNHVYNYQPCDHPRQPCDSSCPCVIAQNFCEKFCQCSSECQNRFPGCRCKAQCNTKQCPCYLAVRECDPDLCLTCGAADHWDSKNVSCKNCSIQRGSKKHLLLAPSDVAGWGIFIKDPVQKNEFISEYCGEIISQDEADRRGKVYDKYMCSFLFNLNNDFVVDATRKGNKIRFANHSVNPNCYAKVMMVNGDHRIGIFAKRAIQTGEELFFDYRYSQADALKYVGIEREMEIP

For `O=C(O)c1c(O)cccc1CCc1ccc2ccccc2c1`, the inhibition [1] was 1%, the Activity (Danio rerio [2]) was “Active” and the Activity (Danio rerio [3]) was “Active”. The Time (4T1.2 [4]) was 33 days, the Time (4T1.2 [5]) was 73 days and the inhibition [6] was 0%. The Activity (Danio rerio [7]) was “Active”, the inhibition in vivo at 25 mg/kg/day (4T1.2 [8]) was 55% and the inhibition [9] was 6%. The CC50 at 24 h [10] was 117 µM, the Activity (Danio rerio [11]) was “Active” and the inhibition [12] was “inactive”. The inhibition in vivo at 25 mg/kg/day (4T1.2 [13]) was 70%, the Activity (4T1.2 [14]) was 67% and the inhibition [15] was -6%. For the same compound, the inhibition [16] was -2%, the inhibition [17] was 27% and the Activity (Danio rerio [18]) was “Active”. The inhibition [19] was “inactive”, the concentration at 240 h [20] was 55.2 µg/mL and the inhibition [21] was -8%. The Activity (4T1.2 [22]) was “inactive”, the inhibition [23] was 2% and the inhibition [24] was “inactive”. For the same compound, the inhibition [25] was 3%, the Activity (Danio rerio [26]) was “Active” and the inhibition [27] was -1%. The inhibition [28] was “inactive”, the inhibition [29] was 3% and the inhibition (4T1.2 [30]) was “Active”. The inhibition [31] was -5.2%, the inhibition [32] was 3% and the inhibition at 10 µM (hERG (KCNH2)) was -14%.
